Values joined by “and” are separate entries in the source; they are usually repeats but may differ in a detail not shown here. Equal values may be shown once. Toxic doses and inconclusive results are not listed. No stated cut-off is given here; in the data, active means T/C of 150% or more; inactive means T/C below 125%.
System: L1210 leukemia ip in BDF1 mice, survival T/C
Experiment: NCI In Vivo Anticancer Drug Screen. Data for tumor model L1210 Leukemia (intraperitoneal) in B6D2F1 (BDF1) mice
Conditions: higher = longer survival
In short: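 Ratio derived from survival: compound-dosed mice over vehicle-dosed mice, all bearing a transplantable tumor.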

[1] = endpoint: mean survival time, dose: 400.0 mg/kg/injection, schedule: Q01DX009 (ip), vehicle: saline

Measured: T/C

CN(N=O)C(=O)N[C@@H](C=O)[C@@H](O)[C@H](O)[C@H](O)CO
inactive: endpoint: mean survival time, dose: 0.5 mg/kg/injection, schedule: Q03HX040 (ip), vehicle: other 94 % of control | endpoint: mean survival time, dose: 1.0 mg/kg/injection, schedule: Q03HX040 (ip), vehicle: other 98 % of control | endpoint: mean survival time, dose: 2.0 mg/kg/injection, schedule: Q03HX040 (ip), vehicle: other 92 % of control | endpoint: mean survival time, dose: 2.3 mg/kg/injection, schedule: Q01DX009 (ip), vehicle: other 96 % of control and 101 % of control | endpoint: mean survival time, dose: 4.0 mg/kg/injection, schedule: Q03HX040 (ip), vehicle: other 104 % of control | endpoint: mean survival time, dose: 4.5 mg/kg/injection, schedule: Q01DX009 (ip), vehicle: other 92 % of control and 105 % of control | endpoint: mean survival time, dose: 8.0 mg/kg/injection, schedule: Q03HX040 (ip), vehicle: other 112 % of control | endpoint: mean survival time, dose: 8.0 mg/kg/injection, schedule: Q## X009 (ip), vehicle: other 98 % of control | endpoint: mean survival time, dose: 9.0 mg/kg/injection, schedule: Q01DX009 (ip), vehicle: other 99 % of control and 111 % of control | endpoint: mean survival time, dose: 12.5 mg/kg/injection, schedule: Q01DX009 (ip), vehicle: saline 101 % of control and 107 % of control | endpoint: mean survival time, dose: 12.5 mg/kg/injection, schedule: Q01DX009 (ip), vehicle: water 104 % of control | endpoint: mean survival time, dose: 16.0 mg/kg/injection, schedule: Q01DX017 (ip), vehicle: other 107 % of control | endpoint: mean survival time, dose: 16.0 mg/kg/injection, schedule: Q03HX040 (ip), vehicle: other 110 % of control | endpoint: mean survival time, dose: 16.0 mg/kg/injection, schedule: Q## X009 (ip), vehicle: other 94 % of control | endpoint: mean survival time, dose: 17.0 mg/kg/injection, schedule: Q04DX002 (ip), vehicle: other 97 % of control and 113 % of control | endpoint: mean survival time, dose: 24.5 mg/kg/injection, schedule: Q01DX Z (ip), vehicle: water 112 % of control | endpoint: mean survival time, dose: 25.0 mg/kg/injection, schedule: Q01DX009 (ip), vehicle: other 120 % of control | endpoint: mean survival time, dose: 25.0 mg/kg/injection, schedule: Q01DX Z (ip), vehicle: water 115 % of control | endpoint: mean survival time, dose: 25.0 mg/kg/injection, schedule: Q04DX003 (ip), vehicle: saline 96 % of control and 100 % of control | endpoint: mean survival time, dose: 32.0 mg/kg/injection, schedule: Q01DX001 (ip), vehicle: other 100 % of control | endpoint: mean survival time, dose: 32.0 mg/kg/injection, schedule: Q02DX009 (ip), vehicle: other 112 % of control | endpoint: mean survival time, dose: 32.0 mg/kg/injection, schedule: Q04DX005 (ip), vehicle: other 101 % of control | endpoint: mean survival time, dose: 32.0 mg/kg/injection, schedule: Q08DX003 (ip), vehicle: other 101 % of control | endpoint: mean survival time, dose: 32.0 mg/kg/injection, schedule: Q## X009 (ip), vehicle: other 112 % of control | endpoint: mean survival time, dose: 49.5 mg/kg/injection, schedule: Q01DX Z (ip), vehicle: water 120 % of control | endpoint: mean survival time, dose: 50.0 mg/kg/injection, schedule: Q01DX009 (ip), vehicle: citric acid 110 % of control | endpoint: mean survival time, dose: 50.0 mg/kg/injection, schedule: Q04DX002 (ip), vehicle: saline 104 % of control | endpoint: mean survival time, dose: 50.0 mg/kg/injection, schedule: Q04DX003 (ip), vehicle: saline 105 % of control and 110 % of control | endpoint: mean survival time, dose: 64.0 mg/kg/injection, schedule: Q01DX001 (ip), vehicle: other 105 % of control | endpoint: mean survival time, dose: 64.0 mg/kg/injection, schedule: Q04DX005 (ip), vehicle: other 111 % of control | endpoint: mean survival time, dose: 64.0 mg/kg/injection, schedule: Q08DX003 (ip), vehicle: other 104 % of control | endpoint: mean survival time, dose: 67.0 mg/kg/injection, schedule: Q01DX009 (ip), vehicle: citric acid 116 % of control | endpoint: mean survival time, dose: 100.0 mg/kg/injection, schedule: Q01DX001 (ip), vehicle: other 103 % of control | endpoint: mean survival time, dose: 100.0 mg/kg/injection, schedule: Q01DX009 (ip), vehicle: citric acid 123 % of control and 124 % of control and 89 % of control | endpoint: mean survival time, dose: 100.0 mg/kg/injection, schedule: Q01DX009 (ip), vehicle: other 118 % of control | endpoint: mean survival time, dose: 100.0 mg/kg/injection, schedule: Q01DX Z (ip), vehicle: water 117 % of control | endpoint: mean survival time, dose: 100.0 mg/kg/injection, schedule: Q04DX002 (ip), vehicle: saline 120 % of control | endpoint: mean survival time, dose: 100.0 mg/kg/injection, schedule: Q04DX003 (ip), vehicle: saline 97 % of control | endpoint: mean survival time, dose: 128.0 mg/kg/injection, schedule: Q01DX001 (ip), vehicle: other 114 % of control | endpoint: mean survival time, dose: 128.0 mg/kg/injection, schedule: Q02DX009 (ip), vehicle: other 117 % of control | endpoint: mean survival time, dose: 128.0 mg/kg/injection, schedule: Q04DX005 (ip), vehicle: other 118 % of control | endpoint: mean survival time, dose: 128.0 mg/kg/injection, schedule: Q08DX003 (ip), vehicle: other 111 % of control | endpoint: mean survival time, dose: 138.0 mg/kg/injection, schedule: Q01DX009 (ip), vehicle: other 92 % of control | endpoint: mean survival time, dose: 150.0 mg/kg/injection, schedule: Q01DX009 (ip), vehicle: citric acid 90 % of control | endpoint: mean survival time, dose: 200.0 mg/kg/injection, schedule: Q01DX001 (ip), vehicle: other 122 % of control | endpoint: mean survival time, dose: 200.0 mg/kg/injection, schedule: Q04DX003 (ip), vehicle: saline 96 % of control and 97 % of control | endpoint: mean survival time, dose: 250.0 mg/kg/injection, schedule: Q01DX001 (ip), vehicle: citric acid 116 % of control | endpoint: mean survival time, dose: 256.0 mg/kg/injection, schedule: Q01DX001 (ip), vehicle: other 110 % of control | endpoint: mean survival time, dose: 256.0 mg/kg/injection, schedule: Q04DX005 (ip), vehicle: other 114 % of control | endpoint: mean survival time, dose: 256.0 mg/kg/injection, schedule: Q08DX003 (ip), vehicle: other 117 % of control | endpoint: mean survival time, dose: 300.0 mg/kg/injection, schedule: Q01DX001 (ip), vehicle: citric acid 118 % of control and 122 % of control | endpoint: mean survival time, dose: 300.0 mg/kg/injection, schedule: Q04DX002 (ip), vehicle: acid diluted with saline 93 % of control | endpoint: mean survival time, dose: 350.0 mg/kg/injection, schedule: Q01DX001 (ip), vehicle: citric acid 112 % of control | endpoint: mean survival time, dose: 400.0 mg/kg/injection, schedule: Q01DX001 (ip), vehicle: citric acid 111 % of control | [1] 108 % of control | endpoint: mean survival time, dose: 400.0 mg/kg/injection, schedule: Q04DX002 (ip), vehicle: saline 93 % of control and 123 % of control | endpoint: mean survival time, dose: 518.0 mg/kg/injection, schedule: Q04DX002 (ip), vehicle: other 95 % of control | endpoint: median survival time, dose: 14.0 mg/kg/injection, schedule: Q01DX009 (ip), vehicle: Klucel (hydroxypropylcellulose) (HPC) 111 % of control | endpoint: median survival time, dose: 17.0 mg/kg/injection, schedule: Q01DX009 (ip), vehicle: water 108 % of control and 114 % of control | endpoint: median survival time, dose: 26.0 mg/kg/injection, schedule: Q01DX009 (ip), vehicle: water 104 % of control and 117 % of control | endpoint: median survival time, dose: 39.0 mg/kg/injection, schedule: Q01DX009 (ip), vehicle: Klucel (hydroxypropylcellulose) (HPC) 116 % of control | endpoint: median survival time, dose: 39.0 mg/kg/injection, schedule: Q01DX009 (ip), vehicle: water 111 % of control | endpoint: median survival time, dose: 87.0 mg/kg/injection, schedule: Q01DX009 (ip), vehicle: water 114 % of control | endpoint: median survival time, dose: 130.0 mg/kg/injection, schedule: Q01DX009 (ip), vehicle: water 86 % of control

COC1(C)C(=O)Oc2c1c1ccccc1c1ccccc21 (stereo not drawn)
inactive: endpoint: mean survival time, dose: 75.0 mg/kg/injection, schedule: Q01DX001 (ip), vehicle: carboxymethylcellulose (CMC) 94 % of control | endpoint: mean survival time, dose: 150.0 mg/kg/injection, schedule: Q01DX001 (ip), vehicle: carboxymethylcellulose (CMC) 89 % of control

COc1cccc(NC(=O)CCC(=O)O)c1
inactive: endpoint: mean survival time, dose: 25.0 mg/kg/injection, schedule: Q01DX009 (ip), vehicle: saline with Tween-80 105 % of control | endpoint: mean survival time, dose: 50.0 mg/kg/injection, schedule: Q01DX009 (ip), vehicle: saline with Tween-80 100 % of control | endpoint: mean survival time, dose: 50.0 mg/kg/injection, schedule: Q04DX003 (ip), vehicle: saline with Tween-80 98 % of control | endpoint: mean survival time, dose: 100.0 mg/kg/injection, schedule: Q04DX003 (ip), vehicle: saline with Tween-80 103 % of control | endpoint: mean survival time, dose: 200.0 mg/kg/injection, schedule: Q01DX009 (ip), vehicle: saline with Tween-80 88 % of control | endpoint: mean survival time, dose: 200.0 mg/kg/injection, schedule: Q04DX003 (ip), vehicle: saline with Tween-80 97 % of control | endpoint: mean survival time, dose: 400.0 mg/kg/injection, schedule: Q01DX009 (ip), vehicle: saline with Tween-80 95 % of control | endpoint: mean survival time, dose: 400.0 mg/kg/injection, schedule: Q04DX003 (ip), vehicle: saline with Tween-80 103 % of control

COC1CCS(=O)(=O)C1 (stereo not drawn)
inactive: endpoint: mean survival time, dose: 100.0 mg/kg/injection, schedule: Q01DX001 (ip), vehicle: saline 95 % of control | endpoint: mean survival time, dose: 100.0 mg/kg/injection, schedule: Q01DX009 (ip), vehicle: saline 97 % of control | endpoint: mean survival time, dose: 200.0 mg/kg/injection, schedule: Q01DX001 (ip), vehicle: saline 94 % of control | endpoint: mean survival time, dose: 200.0 mg/kg/injection, schedule: Q01DX009 (ip), vehicle: saline 98 % of control | endpoint: mean survival time, dose: 400.0 mg/kg/injection, schedule: Q01DX001 (ip), vehicle: saline 94 % of control | [1] 100 % of control

CCC[CH2][Tl]([Br])[CH2]CCC
inactive: endpoint: mean survival time, dose: 100.0 mg/kg/injection, schedule: Q04DX002 (ip), vehicle: saline with Tween-80 98 % of control | endpoint: mean survival time, dose: 200.0 mg/kg/injection, schedule: Q04DX002 (ip), vehicle: saline with Tween-80 103 % of control | endpoint: mean survival time, dose: 400.0 mg/kg/injection, schedule: Q04DX002 (ip), vehicle: saline with Tween-80 106 % of control

— PubChem BioAssay AID248 (DTP/NCI, 2004)
